In brackets after ≈: the same amount, converted by molar mass. Where two headings read alike, the source gives them in different places.

One data set relates to HIV-1 IIIB. Description: Anti-HIV-1 activity in MT-4 cells (MTT assay). Type of data set: cell-based. The settings on record: Human immunodeficiency virus 1, IIIB, MT4, 120 h, read-out: EC50 HIV-1 IIIB. The procedure: (§1) The antiviral activities and cytotoxicities of the target compounds were tested using MT-4 cells infected by HIV-1 IIIB or HIV-2 ROD. […] PF74 was utilized as the control drug in this assay.
Background: Formazan colour is commonly taken as a measure of viable cells.

The next data set concerns HIV-2 ROD. Description: Anti-HIV-2 activity in MT-4 cells (MTT assay). It counts as cell-based. The conditions noted are these: Human immunodeficiency virus 2, MT4, 120 h, read-out: EC50 HIV-2 ROD. The procedure:
as §1

Data set [1] is described as follows: Cytotoxicity in mock-infected MT-4 cells (MTT assay). It counts as cell-based. The conditions noted are these: human, mock-infected (uninfected) MT-4 cells, uninfected (mock-infected) MT-4 cells, viability reduced by 50%. The procedure: as §1
Data set [2] in a line: Water solubility assay in phosphate buffer (HPLC). It counts as physicochemical. The settings on record: for solubility: aqueous buffer, thermodynamic from solid, HPLC; for water solubility compared with PF74: in words, relative to PF74. The protocol:
To test the changes in water solubility when two more amides or its mimics were introduced to the target compounds, which may lower the solubility of the target compounds, we performed water solubility assays (Table 2). […] Therefore, we cannot calculate its water solubility. It was illustrated that the solubility of compounds varied greatly under different pH. […] We weighed about 1mg of the compound, dissolved it with 1ml of methanol, and diluted it in gradient (twice each time) to obtain 10 concentrations. The peak area of the compound was tested by HPLC, and the peak area- concentration standard curve was drawn. In addition, about 1 mg, 0.6 mg and 0.3 mg of the compound were weighed and dissolved in 1 mL of pH 2, pH 7 and pH 7.4 phosphate buffer to obtain the saturated solution of the compound. HPLC was used to test the peak area under different pH, and the water solubility of the compound was obtained through the standard curve.

Another data set has as its system MT-4 cells. Description: Cytotoxicity in mock-infected MT-4 cells (MTT assay). The conditions noted are these: uninfected (mock-infected) MT-4 cells, viability reduced by 50%. It counts as cell-based. The protocol:
as §1

The subject of the next data set is HIV. Also on record: method as in PMID 32612233. The settings on record: MT-4 cells; read-out: EC50 antiviral activity; cited from earlier work.
Setting [3] is: phosphate buffer pH 2, saturated solution, read-out: Solubility pH 2.
Where [4] appears, read: phosphate buffer pH 7, saturated solution, read-out: Solubility pH 7.
[5] abbreviates: phosphate buffer pH 7.4, saturated solution, read-out: Solubility pH 7.4.
[6] abbreviates: MT-4 cells, 50% protection against HIV-induced cytopathic effect, MTT, five days after infection.

On to `Cc1[nH]c2ccccc2c1CC(=O)NC(Cc1ccccc1)C(=O)N(C)c1ccccc1` (stereo not drawn) [PF74, reference compound], for which the EC50 (commonly the midpoint of the concentration-response curve) in the data set on HIV-1 IIIB is 1.08 ± 0.24 µM; with HIV-2 ROD, 5.76 ± 2.14 µM. Moreover, the CC50 (commonly the concentration at which the toxic effect on the cells reaches its halfway point) at 5 days in data set [1] was over 294 µM. The solubility (in general, the concentration that dissolves in the medium under given conditions) was under 1.12 µg/mL in data set [2] (setting [3]), 1.44 ± 0.1 µg/mL (≈ 3.38 µM) in data set [2] (setting [4]) and 1.91 ± 0.56 µg/mL (≈ 4.49 µM) in data set [2] (setting [5]).
With `COc1ccc(N(C)C(=O)[C@H](Cc2ccccc2)NC(=O)Cn2ccc(NC(=O)c3ccc([N+](=O)[O-])cc3)cc2=O)cc1` [TD-1l, (S)-N-(1-(2-((1-((4-methoxyphenyl)(methyl)amino)-1-oxo-3-phenylpropan-2-yl)amino)-2-oxoethyl)-2-oxo-1,2-dihydropyridin-4-yl)-4-nitrobenzamide], the EC50 in the data set with HIV-1 IIIB (setting [6]) and in the data set with HIV-2 ROD (setting [6]) was over 31.9 µM in each case. This molecule came in with a CC50 with MT-4 cells of 31.9 ± 1.73 µM.
Take `COc1ccc(N(C)C(=O)[C@H](Cc2ccccc2)NC(=O)Cn2ccc(NC(=O)c3ccc(C#N)cc3)cc2=O)cc1` [TD-1j, (S)-4-cyano-N-(1-(2-((1-((4-methoxyphenyl)(methyl)amino)-1-oxo-3-phenylpropan-2-yl)amino)-2-oxoethyl)-2-oxo-1,2-dihydropyridin-4-yl)benzamide]: the figures for the EC50 in the data set with HIV-1 IIIB (setting [6]) and in the data set on HIV-2 ROD (setting [6]) were 16.8 ± 0.78 µM and 17.8 ± 2.79 µM, respectively. For the same molecule, the midpoint of cytotoxicity in the data set with MT-4 cells, the CC50, lay at 137 ± 22.5 µM.
For `COc1ccc(N(C)C(=O)[C@H](Cc2ccccc2)NC(=O)Cn2ccc(N)cc2=O)cc1` [TC-2, (S)-2-(2-(4-amino-2-oxopyridin-1(2H)-yl)acetamido)-N-(4-methoxyphenyl)-N-methyl-3-phenylpropanamide], in that order: 29.1 ± 4.23 µM, 19.7 ± 6.42 µM and 261 ± 33.1 µM.
For the molecule `COc1ccc(N(C)C(=O)[C@H](Cc2ccccc2)NC(=O)Cn2ccc(NC(=O)c3ccc(Br)cc3)cc2=O)cc1` [TD-1f, (S)-4-bromo-N-(1-(2-((1-((4-methoxyphenyl)(methyl)amino)-1-oxo-3-phenylpropan-2-yl)amino)-2-oxoethyl)-2-oxo-1,2-dihydropyridin-4-yl)benzamide], the EC50 with HIV-1 IIIB (setting [6]) and in the data set on HIV-2 ROD (setting [6]) was over 23.5 µM throughout. The molecule further displayed a CC50 in the data set on MT-4 cells of 23.5 ± 2.79 µM.
Take `COc1ccc(N(C)C(=O)[C@H](Cc2ccccc2)NC(=O)Cn2ccc(NC(=O)c3ccc(N)cc3)cc2=O)cc1` [TD-1m, (S)-4-amino-N-(1-(2-((1-((4-methoxyphenyl)(methyl)amino)-1-oxo-3-phenylpropan-2-yl)amino)-2-oxoethyl)-2-oxo-1,2-dihydropyridin-4-yl)benzamide]: the results for the EC50 with HIV-1 IIIB (setting [6]) and in the data set with HIV-2 ROD (setting [6]) were over 189 µM and 17.1 ± 2.49 µM, respectively. For the same molecule, the midpoint of cytotoxicity in the data set on MT-4 cells, the CC50, lay at 189 ± 2.19 µM.
With `COc1ccc(N(C)C(=O)[C@H](Cc2ccccc2)NC(=O)Cn2ccc(NC(=O)c3ccc(Cl)cc3)cc2=O)cc1` [TD-1e, (S)-4-chloro-N-(1-(2-((1-((4-methoxyphenyl)(methyl)amino)-1-oxo-3-phenylpropan-2-yl)amino)-2-oxoethyl)-2-oxo-1,2-dihydropyridin-4-yl)benzamide], the EC50 with HIV-1 IIIB (setting [6]) and in the data set on HIV-2 ROD (setting [6]) was over 25.5 µM throughout. The same molecule gave a CC50 in the data set on MT-4 cells of 25.5 ± 2.9 µM.
`COc1ccc(N(C)C(=O)[C@H](Cc2ccccc2)NC(=O)Cn2ccc(NC(=O)c3cccc(F)c3)cc2=O)cc1` [TD-1c, (S)-3-fluoro-N-(1-(2-((1-((4-methoxyphenyl)(methyl)amino)-1-oxo-3-phenylpropan-2-yl)amino)-2-oxoethyl)-2-oxo-1,2-dihydropyridin-4-yl)benzamide]: the EC50 with HIV-1 IIIB (setting [6]) came to 18.9 ± 2.66 µM; with HIV-2 ROD (setting [6]) it was 6.59 ± 1.63 µM. Moreover, in the data set on MT-4 cells, the CC50 turned out to be 61.6 ± 8.44 µM.
On to `COc1ccc(N(C)C(=O)[C@H](Cc2ccccc2)NC(=O)Cn2ccc(NC(=O)c3ccc(F)cc3)cc2=O)cc1` [TD-1b, (S)-4-fluoro-N-(1-(2-((1-((4-methoxyphenyl)(methyl)amino)-1-oxo-3-phenylpropan-2-yl)amino)-2-oxoethyl)-2-oxo-1,2-dihydropyridin-4-yl)benzamide], for which the values for the half-maximal effective concentration (EC50) in the data set on HIV-1 IIIB (setting [6]) and in the data set on HIV-2 ROD (setting [6]) were over 34.8 µM and 16.2 ± 17.2 µM, respectively. In the data set on MT-4 cells, this molecule showed a CC50 of 34.8 ± 5.75 µM.
For `COc1ccc(N(C)C(=O)[C@H](Cc2ccccc2)NC(=O)Cn2ccc(NC(=O)c3ccc4ccccc4c3)cc2=O)cc1` [TD-1k, (S)-N-(1-(2-((1-((4-methoxyphenyl)(methyl)amino)-1-oxo-3-phenylpropan-2-yl)amino)-2-oxoethyl)-2-oxo-1,2-dihydropyridin-4-yl)-2-naphthamide], in that order: over 27.6 µM, over 27.6 µM and 27.6 ± 3.18 µM.
Consider `COc1ccc(N(C)C(=O)[C@H](Cc2ccccc2)NC(=O)Cn2ccc(NC(=O)c3ccccc3F)cc2=O)cc1` [TD-1d, (S)-2-fluoro-N-(1-(2-((1-((4-methoxyphenyl)(methyl)amino)-1-oxo-3-phenylpropan-2-yl)amino)-2-oxoethyl)-2-oxo-1,2-dihydropyridin-4-yl)benzamide], for which the EC50 stood at 17.9 ± 2.68 µM in the data set with HIV-1 IIIB (setting [6]) and 7.92 ± 0.83 µM in the data set with HIV-2 ROD (setting [6]). Moreover, the CC50 with MT-4 cells stood at 81.4 ± 22.7 µM.
On to `COC(=O)c1ccc(C(=O)Nc2ccn(CC(=O)N[C@@H](Cc3ccccc3)C(=O)N(C)c3ccc(OC)cc3)c(=O)c2)cc1` [TD-1i, methyl (S)-4-((1-(2-((1-((4-methoxyphenyl)(methyl)amino)-1-oxo-3-phenylpropan-2-yl)amino)-2-oxoethyl)-2-oxo-1,2-dihydropyridin-4-yl)carbamoyl)benzoate], for which the EC50 with HIV-1 IIIB (setting [6]) was 19.1 ± 5.08 µM; in the data set on HIV-2 ROD (setting [6]) it was 15.2 ± 0.55 µM. This molecule also had a CC50 in the data set with MT-4 cells of 96.2 ± 19.8 µM.
Take `COc1ccc(N(C)C(=O)[C@H](Cc2ccccc2)NC(=O)Cn2ccc(NC(=O)c3ccc(C)cc3)cc2=O)cc1` [TD-1g, (S)-N-(1-(2-((1-((4-methoxyphenyl)(methyl)amino)-1-oxo-3-phenylpropan-2-yl)amino)-2-oxoethyl)-2-oxo-1,2-dihydropyridin-4-yl)-4-methylbenzamide]: the EC50 in the data set on HIV-1 IIIB (setting [6]) was determined as 25.6 ± 7.51 µM; in the data set with HIV-2 ROD (setting [6]) it was 20.5 ± 8.49 µM. Besides, in the data set on MT-4 cells, the midpoint of cytotoxicity, the CC50, lay at 58.3 ± 4.85 µM.
For `COc1ccc(C(=O)Nc2ccn(CC(=O)N[C@@H](Cc3ccccc3)C(=O)N(C)c3ccc(OC)cc3)c(=O)c2)cc1` [TD-1h, (S)-4-methoxy-N-(1-(2-((1-((4-methoxyphenyl)(methyl)amino)-1-oxo-3-phenylpropan-2-yl)amino)-2-oxoethyl)-2-oxo-1,2-dihydropyridin-4-yl)benzamide], the EC50 in the data set on HIV-1 IIIB (setting [6]) turned out to be 29.6 ± 4.34 µM; in the data set with HIV-2 ROD (setting [6]), 10.7 ± 3.66 µM. Moreover, in the data set with MT-4 cells, half-maximal cytotoxicity (CC50) was put at 53.1 ± 5.12 µM.
For `COc1ccc(N(C)C(=O)[C@H](Cc2cc(F)cc(F)c2)NC(=O)Cn2ccc(N)cc2=O)cc1` [FTC-2, (S)-2-(2-(4-amino-2-oxopyridin-1(2H)-yl)acetamido)-3-(3,5-difluorophenyl)-N-(4-methoxyphenyl)-N-methylpropanamide], the EC50 in the data set on HIV-1 IIIB (setting [6]) turned out to be 5.36 ± 0.98 µM; in the data set on HIV-2 ROD (setting [6]), 15.6 ± 1.06 µM. Further, the CC50 with MT-4 cells was over 266 µM. Further, the solubility came out at 367 ± 58.4 µg/mL (≈ 779 µM) in data set [2] (setting [3]), 261 ± 130 µg/mL (≈ 555 µM) in data set [2] (setting [4]) and 437 ± 51.9 µg/mL (≈ 928 µM) in data set [2] (setting [5]). The “water solubility compared with PF74” value in data set [2] is “improved by a factor of hundreds”.
As to `CC(C)(C#Cc1ccc(-c2ccc(Cl)c3c(NS(C)(=O)=O)nn(CC(F)(F)F)c23)c([C@H](Cc2cc(F)cc(F)c2)NC(=O)Cn2nc(C(F)(F)F)c3c2C(F)(F)[C@@H]2C[C@H]32)n1)S(C)(=O)=O` [GS-6207], in the data set with HIV, the half-maximal effective concentration (EC50) was 0.000105 µM.
In the case of `COc1ccc(N(C)C(=O)[C@H](Cc2ccccc2)NC(=O)Cn2ccc(NC(=O)c3ccccc3)cc2=O)cc1` [TD-1a, (S)-N-(1-(2-((1-((4-methoxyphenyl)(methyl)amino)-1-oxo-3-phenylpropan-2-yl)amino)-2-oxoethyl)-2-oxo-1,2-dihydropyridin-4-yl)benzamide], the EC50 in the data set on HIV-1 IIIB (setting [6]) is 16.8 ± 0.91 µM; in the data set on HIV-2 ROD (setting [6]), 4.86 ± 1.71 µM. In the data set with MT-4 cells, this molecule returned a CC50 of 86.5 ± 29.2 µM. Besides, the figures for the solubility in data set [2] (setting [3]), in data set [2] (setting [4]) and in data set [2] (setting [5]) were 2.69 ± 0.52 µg/mL (≈ 4.99 µM), 5.07 ± 2.6 µg/mL (≈ 9.41 µM) and 8.66 ± 0.41 µg/mL (≈ 16.1 µM), respectively. The “water solubility compared with PF74” value in data set [2] is reported as “moderately increased”.
